Results: ChEMBL document CHEMBL3885861, “Open TG-GATES”

Organism: Rattus norvegicus
Test: Open TG-GATES - Regimen: Single
Type: toxicity, organism-based, Sprague-Dawley
Set-up: regimen Single, gender Male, age 6 weeks
Conditions: in vivo, po, 0 mg/kg, route gavage, dose level Control; for APTT / Bas / Eos / Fbg / Hb / Ht / Lym / MCH / MCHC / MCV / Mono / Neu / PT / Plat / RBC / Ret / WBC: tissue Blood; for KIDNEY_L / KIDNEY_R / KIDNEY_TOTAL: tissue Kidney; for LIVER: tissue Liver; for A/G / ALP / ALT / AST / BUN / CRE / Ca / Cl / DBIL / GLC / IP / K / LDH / Na / PL / RALB / TBIL / TC / TG / TP / gamma-GTP: tissue Plasma

Compound: O=C(OC[C@H]1O[C@@H](OC(=O)c2cc(O)c(O)c(OC(=O)c3cc(O)c(O)c(O)c3)c2)[C@H](OC(=O)c2cc(O)c(O)c(OC(=O)c3cc(O)c(O)c(O)c3)c2)[C@@H](OC(=O)c2cc(O)c(O)c(OC(=O)c3cc(O)c(O)c(O)c3)c2)[C@@H]1OC(=O)c1cc(O)c(O)c(OC(=O)c2cc(O)c(O)c(O)c2)c1)c1cc(O)c(O)c(OC(=O)c2cc(O)c(O)c(O)c2)c1 [TANNIC ACID]
- TERMINAL_BW (3 h): 189.9 g
- APTT (3 h): 16.1 s
- Bas (3 h): 0%
- Eos (3 h): 0.6%
- Fbg (3 h): 216.2 mg/dL
- Hb (3 h): 12.9 g/dL
- Ht (3 h): 38.5%
- Lym (3 h): 79.4%
- MCH (3 h): 22.6 pg
- MCHC (3 h): 33.6%
- MCV (3 h): 67.3 fL
- Mono (3 h): 5%
- Neu (3 h): 15.2%
- PT (3 h): 11.7 s
- Plat (3 h): 106.7 x10_4/uL
- RBC (3 h): 573 x10_4/ul
- Ret (3 h): 10.3%
- WBC (3 h): 111 x10_2/uL
- KIDNEY_L (3 h): 0.9 g
- KIDNEY_R (3 h): 0.9 g
- KIDNEY_TOTAL (3 h): 1.8 g
- LIVER (3 h): 9.5 g
- A/G (3 h): 2.1
- ALP (3 h): 747.6 IU/L
- ALT (3 h): 34.4 IU/L
- AST (3 h): 68 IU/L
- BUN (3 h): 17 mg/dL
- CRE (3 h): 0.4 mg/dL
- Ca (3 h): 11 mg/dL
- Cl (3 h): 103.2 meq/L
- DBIL (3 h): 0.016 mg/dL
- GLC (3 h): 194.4 mg/dL
- IP (3 h): 10.3 mg/dL
- K (3 h): 4.8 meq/L
- LDH (3 h): 74.4 IU/L
- Na (3 h): 139.4 meq/L
- PL (3 h): 141.4 mg/dL
- RALB (3 h): 3.6 g/dL
- TBIL (3 h): 0.5 mg/dL
- TC (3 h): 74.8 mg/dL
- TG (3 h): 70.6 mg/dL
- TP (3 h): 5.4 g/dL
- gamma-GTP (3 h): 1.4 IU/L
- TERMINAL_BW (6 h): 186.3 g
- APTT (6 h): 15.9 s
- Bas (6 h): 0%
- Eos (6 h): 0.8%
- Fbg (6 h): 227 mg/dL
- Hb (6 h): 13.1 g/dL
- Ht (6 h): 39.1%
- Lym (6 h): 75.2%
- MCH (6 h): 22.1 pg
- MCHC (6 h): 33.6%
- MCV (6 h): 65.6 fL
- Mono (6 h): 7.8%
- Neu (6 h): 16.4%
- PT (6 h): 12.1 s
- Plat (6 h): 117.4 x10_4/uL
- RBC (6 h): 596 x10_4/ul
- Ret (6 h): 10.1%
- WBC (6 h): 109.6 x10_2/uL
- KIDNEY_L (6 h): 0.9 g
- KIDNEY_R (6 h): 0.9 g
- KIDNEY_TOTAL (6 h): 1.8 g
- LIVER (6 h): 8.6 g
- A/G (6 h): 2
- ALP (6 h): 831.4 IU/L
- ALT (6 h): 34.4 IU/L
- AST (6 h): 61.8 IU/L
- BUN (6 h): 11.2 mg/dL
- CRE (6 h): 0.5 mg/dL
- Ca (6 h): 10.8 mg/dL
- Cl (6 h): 105.2 meq/L
- DBIL (6 h): 0.028 mg/dL
- GLC (6 h): 188 mg/dL
- IP (6 h): 10.1 mg/dL
- K (6 h): 4.7 meq/L
- LDH (6 h): 83 IU/L
- Na (6 h): 139.4 meq/L
- PL (6 h): 131.8 mg/dL
- RALB (6 h): 3.6 g/dL
- TBIL (6 h): 0.4 mg/dL
- TC (6 h): 79.2 mg/dL
- TG (6 h): 40.6 mg/dL
- TP (6 h): 5.4 g/dL
- gamma-GTP (6 h): 2.2 IU/L
- TERMINAL_BW (9 h): 184.6 g
- APTT (9 h): 16.7 s
- Bas (9 h): 0%
- Eos (9 h): 1.2%
- Fbg (9 h): 213 mg/dL
- Hb (9 h): 12.9 g/dL
- Ht (9 h): 38.4%
- Lym (9 h): 76.8%
- MCH (9 h): 22.2 pg
- MCHC (9 h): 33.6%
- MCV (9 h): 65.9 fL
- Mono (9 h): 8%
- Neu (9 h): 14.4%
- PT (9 h): 12.1 s
- Plat (9 h): 123.3 x10_4/uL
- RBC (9 h): 583.4 x10_4/ul
- Ret (9 h): 10.2%
- WBC (9 h): 92.1 x10_2/uL
- KIDNEY_L (9 h): 0.9 g
- KIDNEY_R (9 h): 0.9 g
- KIDNEY_TOTAL (9 h): 1.7 g
- LIVER (9 h): 7.7 g
- A/G (9 h): 1.9
- ALP (9 h): 669.8 IU/L
- ALT (9 h): 34.4 IU/L
- AST (9 h): 60 IU/L
- BUN (9 h): 12.8 mg/dL
- CRE (9 h): 0.4 mg/dL
- Ca (9 h): 10.5 mg/dL
- Cl (9 h): 105.4 meq/L
- DBIL (9 h): 0.062 mg/dL
- GLC (9 h): 195.8 mg/dL
- IP (9 h): 10.8 mg/dL
- K (9 h): 4.9 meq/L
- LDH (9 h): 72.2 IU/L
- Na (9 h): 137 meq/L
- PL (9 h): 138.6 mg/dL
- RALB (9 h): 3.6 g/dL
- TBIL (9 h): 0.4 mg/dL
- TC (9 h): 81.4 mg/dL
- TG (9 h): 35.2 mg/dL
- TP (9 h): 5.5 g/dL
- gamma-GTP (9 h): 2.6 IU/L
- TERMINAL_BW (24 h): 197.9 g
- APTT (24 h): 16.7 s
- Bas (24 h): 0%
- Eos (24 h): 1.2%
- Fbg (24 h): 218.4 mg/dL
- Hb (24 h): 12.5 g/dL
- Ht (24 h): 37.6%
- Lym (24 h): 79.6%
- MCH (24 h): 22 pg
- MCHC (24 h): 33.3%
- MCV (24 h): 66.1 fL
- Mono (24 h): 6%
- Neu (24 h): 13.6%
- PT (24 h): 11.8 s
- Plat (24 h): 110.9 x10_4/uL
- RBC (24 h): 568.6 x10_4/ul
- Ret (24 h): 9.9%
- WBC (24 h): 98.7 x10_2/uL
- KIDNEY_L (24 h): 0.9 g
- KIDNEY_R (24 h): 0.9 g
- KIDNEY_TOTAL (24 h): 1.8 g
- LIVER (24 h): 9.4 g
- A/G (24 h): 2.1
- ALP (24 h): 821.8 IU/L
- ALT (24 h): 41 IU/L
- AST (24 h): 66.6 IU/L
- BUN (24 h): 18.2 mg/dL
- CRE (24 h): 0.5 mg/dL
- Ca (24 h): 10.8 mg/dL
- Cl (24 h): 103.8 meq/L
- DBIL (24 h): 0.004 mg/dL
- GLC (24 h): 190.6 mg/dL
- IP (24 h): 8.7 mg/dL
- K (24 h): 4.7 meq/L
- LDH (24 h): 97 IU/L
- Na (24 h): 138.2 meq/L
- PL (24 h): 144.2 mg/dL
- RALB (24 h): 3.7 g/dL
- TBIL (24 h): 0.4 mg/dL
- TC (24 h): 80.6 mg/dL
- TG (24 h): 77.2 mg/dL
- TP (24 h): 5.5 g/dL
- gamma-GTP (24 h): 1.4 IU/L
